Measurements taken from ChEMBL document CHEMBL5512598, “Current advances and development strategies of orally bioavailable PROTACs” (Eur J Med Chem, 2023).

Key:
[1] = target: T1, Protein cereblon/Leucine-rich repeat serine/threonine-protein kinase 2 (Homo sapiens, UniProt Q5S007+Q96SW2); test: PROTAC activity at CRBN/LRRK2 in human MOLT-4 cells assessed as induction of LRRK2 degradation at 1 uM by Western blot analysis relative to control; format: cell-based
Target sequence in this assay (Q5S007 whole entry, looked up): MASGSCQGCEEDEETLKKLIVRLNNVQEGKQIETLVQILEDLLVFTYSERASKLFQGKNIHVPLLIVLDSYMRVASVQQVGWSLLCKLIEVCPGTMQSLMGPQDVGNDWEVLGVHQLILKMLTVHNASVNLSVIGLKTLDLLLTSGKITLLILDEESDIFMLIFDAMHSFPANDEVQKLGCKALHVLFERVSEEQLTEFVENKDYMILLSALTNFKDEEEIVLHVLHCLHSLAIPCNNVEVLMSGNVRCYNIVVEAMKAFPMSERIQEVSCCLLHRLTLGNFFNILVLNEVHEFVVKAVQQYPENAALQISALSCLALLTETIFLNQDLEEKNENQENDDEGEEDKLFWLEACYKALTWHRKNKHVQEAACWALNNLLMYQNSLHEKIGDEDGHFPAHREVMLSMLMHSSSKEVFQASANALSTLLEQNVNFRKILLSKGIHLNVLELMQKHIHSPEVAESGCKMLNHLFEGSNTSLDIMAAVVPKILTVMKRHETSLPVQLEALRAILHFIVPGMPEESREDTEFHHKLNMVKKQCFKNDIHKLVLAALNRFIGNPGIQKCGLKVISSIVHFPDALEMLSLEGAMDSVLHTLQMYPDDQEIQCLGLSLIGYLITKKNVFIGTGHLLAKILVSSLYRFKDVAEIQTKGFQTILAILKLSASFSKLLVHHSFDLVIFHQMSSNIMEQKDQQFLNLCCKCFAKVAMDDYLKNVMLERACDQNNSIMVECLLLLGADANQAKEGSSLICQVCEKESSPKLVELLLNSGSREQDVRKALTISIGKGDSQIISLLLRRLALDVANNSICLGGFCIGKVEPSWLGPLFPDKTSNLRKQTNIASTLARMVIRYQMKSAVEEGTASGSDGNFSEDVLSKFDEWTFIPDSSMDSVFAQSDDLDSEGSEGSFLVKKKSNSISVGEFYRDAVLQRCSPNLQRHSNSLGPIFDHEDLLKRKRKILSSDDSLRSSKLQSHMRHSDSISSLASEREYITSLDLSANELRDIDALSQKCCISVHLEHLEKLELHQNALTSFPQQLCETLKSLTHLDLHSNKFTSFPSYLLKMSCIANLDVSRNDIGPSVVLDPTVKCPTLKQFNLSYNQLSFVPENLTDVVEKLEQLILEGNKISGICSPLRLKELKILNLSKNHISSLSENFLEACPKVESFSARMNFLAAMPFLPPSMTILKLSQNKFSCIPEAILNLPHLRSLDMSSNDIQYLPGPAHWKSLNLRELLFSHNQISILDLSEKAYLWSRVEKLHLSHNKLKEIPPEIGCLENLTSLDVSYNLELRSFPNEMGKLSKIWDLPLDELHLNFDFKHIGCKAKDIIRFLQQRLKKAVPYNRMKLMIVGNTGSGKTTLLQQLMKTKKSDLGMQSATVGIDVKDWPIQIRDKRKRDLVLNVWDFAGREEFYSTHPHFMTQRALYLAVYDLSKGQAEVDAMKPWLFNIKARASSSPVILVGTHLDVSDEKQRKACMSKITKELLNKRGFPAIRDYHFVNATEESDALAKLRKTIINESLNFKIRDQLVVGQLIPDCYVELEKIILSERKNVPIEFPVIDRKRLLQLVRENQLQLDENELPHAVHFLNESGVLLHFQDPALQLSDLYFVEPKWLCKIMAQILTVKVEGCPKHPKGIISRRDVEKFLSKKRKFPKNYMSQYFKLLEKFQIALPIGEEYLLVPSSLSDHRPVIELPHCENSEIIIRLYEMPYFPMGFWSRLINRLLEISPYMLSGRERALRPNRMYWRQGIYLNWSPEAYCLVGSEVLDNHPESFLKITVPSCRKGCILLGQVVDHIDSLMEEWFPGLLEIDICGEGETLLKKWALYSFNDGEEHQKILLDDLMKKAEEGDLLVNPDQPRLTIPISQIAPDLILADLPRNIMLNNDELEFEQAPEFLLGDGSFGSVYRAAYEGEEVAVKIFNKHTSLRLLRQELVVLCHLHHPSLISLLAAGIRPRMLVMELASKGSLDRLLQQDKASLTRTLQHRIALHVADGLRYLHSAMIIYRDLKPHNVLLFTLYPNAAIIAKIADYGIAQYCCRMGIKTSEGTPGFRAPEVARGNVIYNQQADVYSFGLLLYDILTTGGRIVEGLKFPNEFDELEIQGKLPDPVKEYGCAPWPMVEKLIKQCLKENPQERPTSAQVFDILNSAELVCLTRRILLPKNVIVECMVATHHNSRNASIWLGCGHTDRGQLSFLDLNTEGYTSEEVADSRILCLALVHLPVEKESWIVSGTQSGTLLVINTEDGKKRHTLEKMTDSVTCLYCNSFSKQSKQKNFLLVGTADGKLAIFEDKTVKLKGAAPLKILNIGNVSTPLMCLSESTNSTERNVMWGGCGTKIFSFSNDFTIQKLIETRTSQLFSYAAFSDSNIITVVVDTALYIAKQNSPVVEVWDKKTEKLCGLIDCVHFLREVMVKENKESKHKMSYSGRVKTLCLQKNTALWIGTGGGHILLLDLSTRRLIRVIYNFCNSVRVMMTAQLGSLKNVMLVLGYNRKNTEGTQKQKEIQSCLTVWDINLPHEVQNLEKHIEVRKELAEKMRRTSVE
Target sequence in this assay (Q96SW2 whole entry, looked up): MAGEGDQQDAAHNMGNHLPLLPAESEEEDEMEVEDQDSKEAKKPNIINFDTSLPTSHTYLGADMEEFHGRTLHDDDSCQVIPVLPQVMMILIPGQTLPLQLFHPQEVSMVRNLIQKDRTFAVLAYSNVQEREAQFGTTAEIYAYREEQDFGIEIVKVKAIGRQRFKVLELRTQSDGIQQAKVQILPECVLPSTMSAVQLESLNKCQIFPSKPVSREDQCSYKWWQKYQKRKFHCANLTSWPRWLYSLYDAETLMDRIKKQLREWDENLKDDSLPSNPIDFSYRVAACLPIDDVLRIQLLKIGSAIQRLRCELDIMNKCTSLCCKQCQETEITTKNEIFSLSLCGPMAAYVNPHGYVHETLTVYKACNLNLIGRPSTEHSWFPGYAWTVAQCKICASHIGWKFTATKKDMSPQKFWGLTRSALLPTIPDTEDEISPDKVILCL

[2] = target: T1, Protein cereblon/Leucine-rich repeat serine/threonine-protein kinase 2; test: PROTAC activity at CRBN/LRRK2 in human MOLT-4 cells assessed as induction of LRRK2 degradation incubated for 48 hrs by Western blot analysis; format: cell-based
[3] = Oral availability in ICR mouse at 30 mg/kg by HPLC-MS/MS analysis; format: ADME, organism-based; conditions: in vivo
[4] = AUC (0 to t) in ICR mouse at 30 mg/kg, po measured upto 24 hrs by HPLC-MS/MS analysis; format: ADME, organism-based; conditions: in vivo
[5] = target: T2, Protein cereblon/Tyrosine-protein kinase BTK (Homo sapiens, UniProt Q06187+Q96SW2, C481S); test: PROTAC activity at CRBN/BTK C481S mutant in human TMD8 cells assessed as degradation of BTK protein incubated for 4 hrs by HTRF assay; format: cell-based
T2 sequence (Q06187 2-659 C481S limits assumed, stated change not applied): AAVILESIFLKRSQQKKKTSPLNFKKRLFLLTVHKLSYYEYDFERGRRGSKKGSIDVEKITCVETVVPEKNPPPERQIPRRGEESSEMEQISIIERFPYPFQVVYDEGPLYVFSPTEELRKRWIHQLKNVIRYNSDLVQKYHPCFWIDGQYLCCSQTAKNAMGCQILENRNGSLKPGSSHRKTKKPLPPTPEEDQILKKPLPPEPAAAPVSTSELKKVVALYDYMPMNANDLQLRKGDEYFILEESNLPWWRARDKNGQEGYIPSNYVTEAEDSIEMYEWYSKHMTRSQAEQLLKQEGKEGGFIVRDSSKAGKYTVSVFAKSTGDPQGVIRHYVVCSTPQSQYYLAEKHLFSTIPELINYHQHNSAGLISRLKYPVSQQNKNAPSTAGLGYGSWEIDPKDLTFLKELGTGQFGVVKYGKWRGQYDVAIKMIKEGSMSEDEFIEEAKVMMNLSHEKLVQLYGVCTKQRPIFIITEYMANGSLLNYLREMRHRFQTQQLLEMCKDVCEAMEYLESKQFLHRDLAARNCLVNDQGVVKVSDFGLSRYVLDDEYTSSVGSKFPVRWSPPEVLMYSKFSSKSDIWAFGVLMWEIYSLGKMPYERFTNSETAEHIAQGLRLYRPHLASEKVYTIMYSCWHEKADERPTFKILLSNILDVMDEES
T2 sequence (Q96SW2 whole entry, stated change not applied): as the sequence (Q96SW2 whole entry, looked up) above

[6] = Oral bioavailability in mouse; format: ADME, organism-based; conditions: in vivo
[7] = target: T3, Protein cereblon/Tyrosine-protein kinase BTK (Homo sapiens, UniProt Q06187+Q96SW2); test: PROTAC activity at CRBN/BTK in human TMD8 cells assessed as induction of BTK degradation incubated for 24 hrs by immunoblotting analysis; format: cell-based
[8] = target: T3, Protein cereblon/Tyrosine-protein kinase BTK; test: PROTAC activity at CRBN/BTK in human TMD8 cells assessed as maximal degradation of BTK protein incubated for 24 hrs by immunoblotting analysis relative to control; format: cell-based
[9] = Cmax in mouse at 10 mg/kg, po measured upto 24 hrs by LC-MS/MS analysis; format: ADME, organism-based; conditions: in vivo
[10] = Oral bioavailability in Sprague-Dawley rat at 40 mg/kg measured up to 24 hrs by LC-MS analysis; format: ADME, organism-based; conditions: in vivo
[11] = Cmax in Sprague-Dawley rat at 40 mg/kg, po measured after 24 hrs by LC-MS/MS analysis; format: ADME, organism-based; conditions: in vivo
[12] = Tmax in Sprague-Dawley rat at 40 mg/kg, IG measured up to 24 hrs by LC-MS/MS analysis; format: ADME, organism-based; conditions: in vivo, po
[13] = Half life in Sprague-Dawley rat at 40 mg/kg, po measured after 24 hrs by LC-MS/MS analysis; format: ADME, organism-based; conditions: in vivo
[14] = AUC (0 to t) in Sprague-Dawley rat at 40 mg/kg, IG measured up to 24 hrs by LC-MS/MS analysis; format: ADME, organism-based; conditions: in vivo, po
[15] = target: von Hippel-Lindau disease tumor suppressor/Tyrosine-protein kinase BTK (Homo sapiens, UniProt Q06187+P40337, C481S); test: PROTAC activity at VHL/BTK C481S mutant in human TMD8 cells assessed as induction of BTK degradation incubated for 24 hrs by immunoblotting analysis; format: cell-based
[16] = system: von Hippel-Lindau disease tumor suppressor/Tyrosine-protein kinase BTK (Homo sapiens), Q06187+P40337 [C481S]; test: PROTAC activity at VHL/BTK C481S mutant in human TMD8 cells assessed as maximum degradation of protein relative to control; format: cell-based
[17] = target: von Hippel-Lindau disease tumor suppressor/Histone-lysine N-methyltransferase EZH2 (Homo sapiens, UniProt Q15910+P40337, Y641N); test: PROTAC activity against VHL/EZH2 Y641N mutant in human DB cells assessed as degradation of EZH2 protein expression incubated for 24 hrs by Western blot analysis; format: cell-based
[18] = target: T2, Protein cereblon/Tyrosine-protein kinase BTK; test: PROTAC activity at CRBN/BTK in human TMD8 cells assessed as protein degradation; format: cell-based
[19] = system: Protein cereblon/Tyrosine-protein kinase BTK (Homo sapiens), Q06187+Q96SW2 [C481S]; test: PROTAC activity at CRBN/BTK in human TMD8 cells assessed as maximal protein degradation relative to control; format: cell-based
[20] = target: von Hippel-Lindau disease tumor suppressor/Bromodomain-containing protein 9 (Homo sapiens, UniProt Q9H8M2+P40337); test: PROTAC activity at VHL/BRD9 in human HeLa cells assessed as induction of protein degradation […]; format: cell-based
von Hippel-Lindau disease tumor suppressor/Bromodomain-containing protein 9, sequence (Q9H8M2 whole entry): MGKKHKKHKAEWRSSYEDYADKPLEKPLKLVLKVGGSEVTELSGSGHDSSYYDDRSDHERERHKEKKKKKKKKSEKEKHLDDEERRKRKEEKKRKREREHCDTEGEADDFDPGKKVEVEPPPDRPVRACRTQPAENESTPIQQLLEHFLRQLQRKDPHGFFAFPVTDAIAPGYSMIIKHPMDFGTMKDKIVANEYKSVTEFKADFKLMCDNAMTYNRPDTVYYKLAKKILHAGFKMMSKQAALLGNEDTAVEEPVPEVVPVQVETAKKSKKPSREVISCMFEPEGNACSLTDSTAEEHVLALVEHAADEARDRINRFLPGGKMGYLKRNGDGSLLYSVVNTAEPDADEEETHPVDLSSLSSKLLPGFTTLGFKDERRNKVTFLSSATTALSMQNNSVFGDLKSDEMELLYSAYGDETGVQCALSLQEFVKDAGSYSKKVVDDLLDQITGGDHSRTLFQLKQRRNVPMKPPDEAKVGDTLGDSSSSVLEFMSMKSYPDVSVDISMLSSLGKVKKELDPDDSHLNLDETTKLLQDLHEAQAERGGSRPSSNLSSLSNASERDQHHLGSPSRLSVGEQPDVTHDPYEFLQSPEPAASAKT
von Hippel-Lindau disease tumor suppressor/Bromodomain-containing protein 9, sequence (P40337 whole entry): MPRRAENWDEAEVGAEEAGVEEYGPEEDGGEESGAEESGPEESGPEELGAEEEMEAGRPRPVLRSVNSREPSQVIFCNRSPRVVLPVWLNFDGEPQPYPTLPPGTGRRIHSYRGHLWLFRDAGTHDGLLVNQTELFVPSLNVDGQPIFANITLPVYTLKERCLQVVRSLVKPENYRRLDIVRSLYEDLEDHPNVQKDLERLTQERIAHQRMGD

[21] = Oral bioavailability in rat at 5 mg/kg by LC-MS/MS analysis; format: ADME, organism-based; conditions: in vivo
[22] = Oral bioavailability in mouse at 5 mg/kg by LC-MS/MS analysis; format: ADME, organism-based; conditions: in vivo

With `Cc1ncsc1-c1ccc(CNC(=O)[C@@H]2C[C@@H](O)CN2C(=O)[C@@H](NC(=O)CCCCCCCCCCNC(=O)OC2C[C@@H](C)C=C3C=C[C@H](C)[C@H](CC[C@@H](O)C[C@H](O)CC(=O)O)[C@H]32)C(C)(C)C)cc1` (stereo partly drawn) the Emax [1] was 65% and the DC50 [2] was 120 nM.
Work on `Cc1ncsc1-c1ccc([C@H](CC[C@H](C)CCN2CCC(c3ccc4c(c3)n(C3CCCC3)c3nc(=O)c5c(Br)cccc5n43)CC2)NC(=O)[C@@H]2C[C@@H](O)CN2C(=O)[C@@H](NC(=O)C2(F)CC2)C(C)(C)C)cc1` yielded a bioavailability [3] of 22% and an AUC(0-t) at 24 h [4] of 50000 ng·h/mL.
For `NC(=O)c1ncc(N2CCCCC2)nc1Nc1ccc(C2CCN(C[C@@H]3CCN(c4ccc5c(c4)C(=O)N(C4CCC(=O)NC4=O)C5=O)C3)CC2)cc1` (stereo partly drawn), the DC50 [5] was 13 nM, the bioavailability [6] was 8% and the DC50 [7] was 4.5 nM. For the same compound, the Emax [8] was 86% and the Cmax [9] was 1300 nM.
With `N#Cc1cccc(-c2ccc(=O)n(Cc3cccc(-c4ncc(OCC5CCN(CC(=O)N6CCN(c7ccc8c(c7)C(=O)N(C7CCC(=O)NC7=O)C8=O)CC6)CC5)cn4)c3)n2)c1` (stereo not drawn) the bioavailability [10] was 0.7%, the Cmax [11] was 8.47 ng/mL and the Tmax [12] was 1.75 h. It also gave a half-life [13] of 950 min and an AUC(0-t) at 24 h [14] of 74.2 ng·h/mL.
For `CN1CCN([C@@H]2CCCN(c3cnc(C(N)=O)c(Nc4ccc(C5CCN(C(=O)CCOCCNc6cccc7c6C(=O)N(C6CCC(=O)NC6=O)C7=O)CC5)cc4)n3)C2)C1=O` (stereo partly drawn), the DC50 [15] was 7 nM and the Emax [16] was 86%.
Work on `Cc1ncsc1-c1ccc(CNC(=O)[C@@H]2C[C@@H](O)CN2C(=O)[C@@H](NC(=O)CCCNC(=O)c2ccc(-c3cnc(NCc4ccco4)n4cnnc34)cc2)C(C)(C)C)cc1` yielded a DC50 [17] of 670 nM.
`CN1CCN([C@@H]2CCCN(c3cnc(C(N)=O)c(Nc4ccc(C5CCN(C[C@@H]6CCN(c7ccc8c(c7)C(=O)N(C7CCC(=O)NC7=O)C8=O)C6)CC5)cc4)n3)C2)C1=O` (stereo partly drawn) showed a DC50 [18] of 0.5 nM and an Emax [19] of 96%.
For `COc1cc(-c2cn(C)c(=O)c3[nH]ncc23)cc(OC)c1CN1CCN(C(=O)CN2CCC(c3ccc(NC4CCC(=O)NC4=O)cc3)CC2)CC1` (stereo not drawn), the bioavailability [6] was < 1% and the DC50 [20] was 5 nM.
In the case of `N#Cc1ccc(O[C@H]2CC[C@H](NC(=O)c3ccc(N4CCC(CN5CCN(c6cc7c(cc6F)C(=O)N(C6CCC(=O)NC6=O)C7=O)CC5)CC4)nn3)CC2)cc1Cl` (stereo partly drawn) [BAVDEGALUTAMIDE], the bioavailability [21] is reported as 23.8% and the bioavailability [22] is reported as 37.9%.
